Assay results as given in patent US9018261B2, “Choline salt of an anti-inflammatory substituted cyclobutenedione compound” (Novartis AG, priority 2011, dated 2015).
Where a name gives a salt, the structure may show the parent alone.

How the values were obtained:
[1] = solubility in aqueous solution at pH 1.0-7.0; assay type: physicochemical; details: aqueous buffer, pH 1.0-7.0, as a free acid
Procedure: [drawing 1] is a weakly acidic compound and is practically insoluble in aqueous solution at pH 1.0-7.0 as a free acid (<0.005 mg/ml).

[2] = hygroscopicity (amount of water absorbed); assay type: physicochemical
From the text: Furthermore, the hygroscopicity of the choline salt is much reduced compared with the free acid. The amount of water absorbed by the free acid is 2.4% and 2.8% by weight after 1 day at 80% and 92% humidity, respectively, and the amount of water absorbed by the choline salt is 0.7% and 0.6% by weight after 1 day at 80% and 92% humidity, respectively.

[3] = solubility in simulated gastric fluid; assay type: physicochemical
dissolution rate at pH 1 = assay type: physicochemical
Procedure: (§1) The choline salt has also a much improved dissolution rate at pH 1 and oral exposure when dosed at 10 mg/kg to male SPRAGUE DAWLEY® rats compared to the free acid form.

[4] = oral exposure in male SPRAGUE DAWLEY rats; assay type: in vivo; details: dosed at 10 mg/kg to male SPRAGUE DAWLEY rats
Procedure: as §1

[5] = pharmacokinetic study in male beagle dogs (plasma concentrations); details: dog, in vivo, 0.3 mg/kg
[6] = conversion into free acid form in gastric acidic conditions; assay type: physicochemical
From the text: The result of this is poor bioavailability of 6-chloro-3-[2-(1-ethyl-propylamino)-3,4-dioxo-cyclobut-1-enylamino]-2-hydroxy-N-methoxy-N-methyl-benzenesulfonamide.

With CCC(CC)Nc1c(Nc2ccc(Cl)c(S(=O)(=O)N(C)OC)c2O)c(=O)c1=O [free acid, 6-chloro-3-[2-(1-ethyl-propylamino)-3,4-dioxo-cyclobut-1-enylamino]-2-hydroxy-N-methoxy-N-methyl-benzenesulfonamide] the solubility [1] was less than 5 µg/mL, the “amount of water absorbed” value ([2]; after 1 day at 80% humidity) was 2.4 % by weight and the “amount of water absorbed” value ([2]; after 1 day at 92% humidity) was 2.8 % by weight.

In the case of CCC(CC)Nc1c(Nc2ccc(Cl)c(S(=O)(=O)N(C)OC)c2O)c(=O)c1=O [choline salt, 6-chloro-3-[2-(1-ethyl-propylamino)-3,4-dioxo-cyclobut-1-enylamino]-2-hydroxy-N-methoxy-N-methyl-benzenesulfonamide choline], the solubility ([3]; simulated gastric fluid at pH 1.2) is reported as 8020 µg/mL, the “solubility in simulated gastric fluid compared to other salts” value ([3]; vs sodium, calcium, N,N-dimethyl-2-aminoethanol and N-(2-hydroxyethyl)pyrrolidine salts) is reported as “significantly improved” and the “amount of water absorbed” value ([2]; after 1 day at 80% humidity) is reported as 0.7 % by weight. For the same compound, the “amount of water absorbed” value ([2]; after 1 day at 92% humidity) was 0.6 % by weight, the “dissolution rate compared to the free acid form” value (dissolution rate at pH 1) was “much improved” and the “oral exposure compared to the free acid form” value [4] was “much improved”. The “systemic exposure after intravenous administration” value [5] was 912 ± 126 ng·h/mL and the “conversion into the free acid form” value [6] was “readily converts”.
